Measured values published in patent US20020082419A1, “2,4-pentadienoic acid derivatives having retinoid-like biological activity” (Allergan Sales, Inc., priority 1995, published 2002).
pEC50, pKd: −log10 of the molar value.

Key:
[1] = biological target: T1, RXRα (Homo sapiens, UniProt P19793); assay: Holoreceptor transactivation assay, RXRα; type: cell-based; conditions: for pEC50: CV1 cells, luciferase reporter, 36 hours incubation; for Transactivation Assay Afficacy (% of RA activity) RXRα: relative to all trans retinoic acid
T1 construct: expressed in transfected cells; host or cells: CV1 cells
T1 sequence (P19793 1-462): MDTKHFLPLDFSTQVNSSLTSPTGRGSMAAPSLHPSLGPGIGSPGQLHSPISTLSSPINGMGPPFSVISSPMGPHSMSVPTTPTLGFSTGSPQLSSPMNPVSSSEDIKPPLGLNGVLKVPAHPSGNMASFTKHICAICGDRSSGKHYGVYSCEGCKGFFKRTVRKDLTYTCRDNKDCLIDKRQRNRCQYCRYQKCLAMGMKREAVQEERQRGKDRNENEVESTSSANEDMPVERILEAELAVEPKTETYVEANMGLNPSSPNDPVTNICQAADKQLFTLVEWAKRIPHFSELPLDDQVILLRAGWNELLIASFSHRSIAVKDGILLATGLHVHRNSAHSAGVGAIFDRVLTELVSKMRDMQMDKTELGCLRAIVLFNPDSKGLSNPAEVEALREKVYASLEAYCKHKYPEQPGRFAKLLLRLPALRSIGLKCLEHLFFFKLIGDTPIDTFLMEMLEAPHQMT
Excerpt: (§1) A holoreceptor transactivation assay and a ligand binding assay which measure the agonist like activity of the compounds of the invention, or their ability to bind to the several retinoid receptor sub-types, respectively, are described in published PCT Application No. WO WO93/11755 (particularly on pages 30-33 and 37-41) published on Jun. 24, 1993, the specification of which is also incorporated herein by reference. A description of the holoreceptor transactivation assay is also provided below.
(§2) CV1 cells (5,000 cells/well) were transfected with an RAR reporter plasmid ▴MTV-TREp-LUC (50 ng) along with one of the RAR expression vectors (10 ng) in an automated 96-well format by the calcium phosphate procedure of Heyman et al. Cell 68, 397-406. (8). For RXR transactivation assays, an RXR-responsive reporter plasmid CRBP II-TK-LUC (50 ng) along with one of the RXR expression vectors (10 ng) was used substantially as described by Heyman et al. above, and Allegretto et al. J. Biol. Chem. 268, 26625-26633. (8, 9). RXR-reporter contained DRI elements from human CRBP II promoter (see Mangelsdorf et al. The Retinoids: Biology, Chemistry and Medicine, pp 319-349, Raven Press Ltd., New York and Heyman et al., cited above) (1, 8). A β-galactosidase (50 ng) expression vector was used as an internal control in the transfections to normalize for variations in transfection efficiency. The cells were transfected in triplicate for 6 hours, followed by incubation with retinoids for 36 hours, and the extracts were assayed for luciferase and β-galactosidase activities. The detailed experimental procedure for holoreceptor transactivations has been described in Heyman et al. above, and Allegretto et al. cited above. The results obtained in this assay in connection with examplary compounds in accordance with the present invention are expressed in EC50 numbers, as they are also in the chimeric receptor transactivation assay. The Heyman et al. Cell 68, 397-406, Allegretto et al. J. Biol. Chem. 268, 26625-26633, and Mangelsdorf et al. The Retinoids: Biology, Chemistry and Medicine, pp 319-349, Raven Press Ltd., New York, are expressly incorporated herein by reference. The results of ligand binding assay are expressed in KD50 numbers.

[2] = biological target: T2, RXRβ (Mus musculus, UniProt P28704); assay: Holoreceptor transactivation assay, RXRβ; type: cell-based; conditions: relative to all trans retinoic acid; read-out: Transactivation Assay Afficacy (% of RA activity) RXRβ
T2 sequence (P28704 1-520): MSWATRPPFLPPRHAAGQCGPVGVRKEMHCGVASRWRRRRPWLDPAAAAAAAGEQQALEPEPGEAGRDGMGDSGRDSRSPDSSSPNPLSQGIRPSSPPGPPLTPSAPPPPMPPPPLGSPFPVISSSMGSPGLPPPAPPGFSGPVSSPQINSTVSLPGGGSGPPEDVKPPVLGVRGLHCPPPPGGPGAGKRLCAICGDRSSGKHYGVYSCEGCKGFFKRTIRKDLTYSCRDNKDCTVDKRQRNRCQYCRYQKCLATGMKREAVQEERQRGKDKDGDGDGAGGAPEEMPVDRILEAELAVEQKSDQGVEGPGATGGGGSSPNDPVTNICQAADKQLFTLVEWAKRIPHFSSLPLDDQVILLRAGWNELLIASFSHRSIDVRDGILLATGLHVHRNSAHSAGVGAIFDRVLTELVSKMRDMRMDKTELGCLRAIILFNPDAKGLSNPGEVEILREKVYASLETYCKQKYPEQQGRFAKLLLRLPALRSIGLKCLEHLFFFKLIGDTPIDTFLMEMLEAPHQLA
Method: (§3) A description of the holoreceptor transactivation assay is also provided below.
(§4) (8). […] (8, 9). […] A β-galactosidase (50 ng) expression vector was used as an internal control in the transfections to normalize for variations in transfection efficiency. The cells were transfected in triplicate for 6 hours, followed by incubation with retinoids for 36 hours, and the extracts were assayed for luciferase and β-galactosidase activities. The detailed experimental procedure for holoreceptor transactivations has been described in Heyman et al. above, and Allegretto et al. cited above. […] The results of ligand binding assay are expressed in KD50 numbers.

[3] = biological target: T3, RARΓ (Homo sapiens, UniProt P13631); assay: Holoreceptor transactivation assay, RARΓ; type: cell-based; conditions: for pEC50: CV1 cells, luciferase reporter, 36 hours incubation; for Transactivation Assay Afficacy (% of RA activity) RARΓ: relative to all trans retinoic acid
T3 construct: expressed in transfected cells; host or cells: CV1 cells
T3 sequence (P13631 1-454): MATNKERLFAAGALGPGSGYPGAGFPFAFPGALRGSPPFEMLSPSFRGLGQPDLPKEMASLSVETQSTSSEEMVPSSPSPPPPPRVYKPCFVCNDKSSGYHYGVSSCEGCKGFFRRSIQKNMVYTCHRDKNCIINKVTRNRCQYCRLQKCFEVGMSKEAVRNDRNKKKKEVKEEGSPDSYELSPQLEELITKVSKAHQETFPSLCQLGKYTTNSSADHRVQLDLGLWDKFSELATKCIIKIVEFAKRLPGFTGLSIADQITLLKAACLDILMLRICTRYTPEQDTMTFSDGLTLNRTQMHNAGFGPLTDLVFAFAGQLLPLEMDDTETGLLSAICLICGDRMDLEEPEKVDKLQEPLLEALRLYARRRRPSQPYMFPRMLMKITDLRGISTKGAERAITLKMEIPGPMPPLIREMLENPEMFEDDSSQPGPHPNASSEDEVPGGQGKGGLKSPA
Method: as §3, §4

[4] = biological target: T4, RXRΓ (Mus musculus, UniProt P28705); assay: Holoreceptor transactivation assay, RXRΓ; type: cell-based; conditions: for pEC50: CV1 cells, luciferase reporter, 36 hours incubation; for Transactivation Assay Afficacy (% of RA activity) RXRΓ: relative to all trans retinoic acid
T4 construct: expressed in transfected cells; host or cells: CV1 cells
T4 sequence (P28705 1-463): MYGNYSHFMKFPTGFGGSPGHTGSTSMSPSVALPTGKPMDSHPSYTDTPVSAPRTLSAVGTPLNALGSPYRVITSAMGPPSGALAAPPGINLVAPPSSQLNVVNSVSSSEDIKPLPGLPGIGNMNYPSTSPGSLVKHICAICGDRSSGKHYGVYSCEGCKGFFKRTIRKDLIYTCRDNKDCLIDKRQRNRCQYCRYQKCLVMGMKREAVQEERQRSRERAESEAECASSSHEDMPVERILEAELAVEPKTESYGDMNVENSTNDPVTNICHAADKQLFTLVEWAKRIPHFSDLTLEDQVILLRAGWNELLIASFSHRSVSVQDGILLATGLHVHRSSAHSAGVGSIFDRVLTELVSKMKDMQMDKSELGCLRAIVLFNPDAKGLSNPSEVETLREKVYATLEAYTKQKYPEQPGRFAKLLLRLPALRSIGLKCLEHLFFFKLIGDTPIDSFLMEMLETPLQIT
Method: as §3, §4

[5] = biological target: T5, RARβ (Homo sapiens, UniProt P10826); assay: Holoreceptor transactivation assay, RARβ; type: cell-based; conditions: for pEC50: CV1 cells, luciferase reporter, 36 hours incubation; for Transactivation Assay Afficacy (% of RA activity) RARβ: relative to all trans retinoic acid
T5 construct: expressed in transfected cells; host or cells: CV1 cells
T5 sequence (P10826 1-455): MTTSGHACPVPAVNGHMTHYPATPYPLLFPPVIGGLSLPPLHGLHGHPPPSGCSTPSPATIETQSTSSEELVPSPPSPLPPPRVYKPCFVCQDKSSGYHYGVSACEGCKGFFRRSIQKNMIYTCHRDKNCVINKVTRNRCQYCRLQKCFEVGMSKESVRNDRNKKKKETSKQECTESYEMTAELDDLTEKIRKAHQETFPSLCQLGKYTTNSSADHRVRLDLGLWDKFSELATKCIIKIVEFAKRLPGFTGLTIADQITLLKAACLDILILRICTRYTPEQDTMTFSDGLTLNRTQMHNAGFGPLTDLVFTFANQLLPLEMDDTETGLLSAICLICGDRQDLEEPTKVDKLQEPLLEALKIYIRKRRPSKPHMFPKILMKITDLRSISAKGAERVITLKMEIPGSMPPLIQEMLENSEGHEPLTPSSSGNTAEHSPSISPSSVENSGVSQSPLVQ
Method: as §3, §4

[6] = biological target: T6, RARα (Homo sapiens, UniProt P10276); assay: Holoreceptor transactivation assay, RARα; type: cell-based; conditions: for pEC50: CV1 cells, luciferase reporter, 36 hours incubation; for Transactivation Assay Afficacy (% of RA activity) RARα: relative to all trans retinoic acid
T6 construct: expressed in transfected cells; host or cells: CV1 cells
T6 sequence (P10276 1-462): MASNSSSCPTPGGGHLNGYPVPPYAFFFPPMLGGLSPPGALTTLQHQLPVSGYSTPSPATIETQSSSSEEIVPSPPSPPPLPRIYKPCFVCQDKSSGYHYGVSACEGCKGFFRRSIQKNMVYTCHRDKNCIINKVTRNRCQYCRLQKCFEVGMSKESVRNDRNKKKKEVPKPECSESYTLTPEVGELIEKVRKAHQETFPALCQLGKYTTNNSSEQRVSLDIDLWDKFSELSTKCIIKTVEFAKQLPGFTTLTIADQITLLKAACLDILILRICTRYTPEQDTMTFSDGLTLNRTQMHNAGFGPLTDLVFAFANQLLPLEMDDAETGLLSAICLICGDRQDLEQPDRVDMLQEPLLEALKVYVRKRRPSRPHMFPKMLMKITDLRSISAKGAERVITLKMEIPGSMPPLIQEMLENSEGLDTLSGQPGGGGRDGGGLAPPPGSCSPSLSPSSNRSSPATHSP
Method: as §3, §4

[7] = biological target: T1, RXRα; assay: Ligand binding assay, RXRα; conditions: read-out: Ligand Binding Assay KD50 RXRα
Excerpt: as §1
as §2, with “The Heyman et al. Cell 68, 397-406, Allegretto et al. J. Biol. Chem. 268, 26625-26633, and Mangelsdorf et al. The Retinoids: Biology, Chemistry and Medicine, pp 319-349, Raven Press Ltd., New York, are expressly incorporated herein by reference. The results of ligand binding assay are expressed in KD50 numbers.” left out

SMILES | pEC50 [1] | Transactivation Assay Afficacy (% of RA activity) RXRα [1] | Emax [2] [%] | pEC50 [3] | Transactivation Assay Afficacy (% of RA activity) RARΓ [3] | pEC50 [4] | Transactivation Assay Afficacy (% of RA activity) RXRΓ [4] | pEC50 [5] | Transactivation Assay Afficacy (% of RA activity) RARβ [5] | pEC50 [6] | Transactivation Assay Afficacy (% of RA activity) RARα [6] | pKd [7]
CC(/C=C/c1ccccc1-c1ccc2c(c1)C(C)(C)CCC2(C)C)=C\C(=O)O [Compound 9, 3-Methyl-5-[2-(5,5,8,8,-tetramethyl-5,6,7,8-tetrahydronaphth-2-yl)phenyl]pent-2(E),4(E)-dienoic Acid] | 6.54 | 59.0 % of RA activity | 94 | < 6.00 | 8.0 % of RA activity | 6.62 | 50.0 % of RA activity | < 6.00 | 8.0 % of RA activity | < 6.00 | 2.0 % of RA activity | –
CC(C=CC1CC1(C)c1cc2c(cc1C)C(C)(C)CCC2(C)C)=CC(=O)O (stereo not drawn) [Compound 13, 3,7-Dimethyl,6(RS),7(SR) methano-7-(3,5,5,8,8-pentamethyl-5,6,7,8-tetrahydronaphth-2-yl),2(E),4(E)-heptadienoic Acid] | 6.89 | 55.0 % of RA activity | 72 | < 6.00 | 8.0 % of RA activity | 7.15 | 40.0 % of RA activity | < 6.00 | 3.0 % of RA activity | < 6.00 | 0.0 % of RA activity | 7.15
CC(C=CC1CC1(C)c1ccc2c(c1)C(C)(C)CCO2)=CC(=O)O (stereo not drawn) [Compound 21, 3,7-Dimethyl,6(RS),7(SR) methano-7-(4,4-dimethyl-chroman-6-yl),2(E),4(E)-heptadienoic Acid] | 7.57 | 83.0 % of RA activity | 93 | < 6.00 | 14.0 % of RA activity | 7.54 | 85.0 % of RA activity | 5.74 | 26.0 % of RA activity | < 6.00 | 4.0 % of RA activity | 8.30
CC(C=CC1CC1(C)c1ccc2c(c1)C(C)(C)CCS2)=CC(=O)O (stereo not drawn) [Compound 17, 3,7-Dimethyl,6(RS),7(SR) methano-7-(4,4-dimethylthiochroman-6-yl) 2(E),4(E)-heptadienoic Acid] | 7.52 | 111 % of RA activity | 118 | 6.57 | 41 % of RA activity | 7.89 | 73 % of RA activity | 7.32 | 29 % of RA activity | 5.92 | 30 % of RA activity | 8.52
